The assay has as its target human TPH1 (Homo sapiens (Human), UniProt P17752). Briefly: Biochemical in vitro assay using fluorescence readout (TPH1 inhibition).
Setting [1] is: human TPH1, fluorescence readout.

Sequence of human TPH1 (P17752 whole entry): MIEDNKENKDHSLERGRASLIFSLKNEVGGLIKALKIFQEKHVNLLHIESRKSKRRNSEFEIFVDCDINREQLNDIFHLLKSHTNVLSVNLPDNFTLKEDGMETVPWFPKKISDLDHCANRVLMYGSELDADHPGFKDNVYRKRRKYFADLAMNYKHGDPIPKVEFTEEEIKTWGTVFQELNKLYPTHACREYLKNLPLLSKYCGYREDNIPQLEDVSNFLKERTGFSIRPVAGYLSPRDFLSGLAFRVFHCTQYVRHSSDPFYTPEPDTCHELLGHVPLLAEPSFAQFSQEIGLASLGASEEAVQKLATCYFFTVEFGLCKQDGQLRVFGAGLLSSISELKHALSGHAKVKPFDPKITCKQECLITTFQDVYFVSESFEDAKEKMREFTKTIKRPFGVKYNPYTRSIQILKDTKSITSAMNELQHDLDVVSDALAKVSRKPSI

Under setting [1], `O=C(COc1ccc(Cl)cc1Cl)N1CCc2nc3sccn3c2C1c1cnn(-c2ccccc2)c1` (stereo not shown) [Example 6.13.2, 2-(2,4-dichlorophenoxy)-1-(5-(1-phenyl-1H-pyrazol-4-yl)-7,8-dihydrothiazolo[2′,3′:2,3]imidazo[4,5-c]pyridin-6(5H)-yl)ethanone] came in with an IC50 of 0.05 µM.

Regarding `COc1ccc(C2c3c(nc4sccn34)CCN2C(=O)COc2ccc(CN3CCOCC3)cc2Cl)c(F)c1` (stereo not shown) [Example 6.3.1, 2-(2-chloro-4-(morpholinomethyl)phenoxy)-1-(5-(2-fluoro-4-methoxyphenyl)-7,8-dihydrothiazolo[2′,3′:2,3]-imidazo[4,5-c]pyridin-6(5H)-yl)ethanone], the IC50 under setting [1] turned out to be 0.005 µM.

Consider `COC(=O)c1ccc(OCC(=O)N2CCc3nc4sc(C)nn4c3C2c2ccc(C3CC3)cc2F)c(Cl)n1` (stereo not shown) [Example 1.6.21, Methyl 6-chloro-5-(2-(5-(4-cyclopropyl-2-fluorophenyl)-2-methyl-7,8-dihydro-[1,3,4]thiadiazolo[2′,3′:2,3]imidazo[4,5-c]pyridin-6(5H)-yl)-2-oxoethoxy)picolinate], for which 0.008 µM corresponded to half-maximal inhibition under setting [1] (IC50).

The compound `Cc1nn2c3c(nc2s1)CCN(C(=O)C(C)(C)Oc1ccc(NS(C)(=O)=O)nc1Cl)C3c1ccc(Cl)cc1F` (stereo not shown) [Example 1.4.56, N-(6-chloro-5-((1-(5-(4-chloro-2-fluorophenyl)-2-methyl-7,8-dihydro-[1,3,4]thiadiazolo[2′,3′:2,3]imidazo[4,5-c]pyridin-6(5H)-yl)-2-methyl-1-oxopropan-2-yl)oxy)pyridin-2-yl)methanesulfonamide] had an IC50 under setting [1] of 0.567 µM.

As to `Cc1nn2c3c(nc2s1)CCN(C(=O)COc1ccc(NS(=O)(=O)C2CC2)nc1Cl)C3c1ccc(Cl)cc1F` (stereo not shown) [Example 1.4.16, N-(6-Chloro-5-(2-(5-(4-chloro-2-fluorophenyl)-2-methyl-7,8-dihydro-[1,3,4]thiadiazolo[2′,3′:2,3]imidazo[4,5-c]pyridin-6(5H)-yl)-2-oxoethoxy)pyridin-2-yl)-cyclopropanesulfonamide], the 50% inhibitory concentration (IC50) (full length human TPH1, 40 μM L-tryptophan, 15° C., 60 minutes, fluorescence at 540 nm, mean if determined several times) stood at 0.007 µM.

`COC(=O)c1cnc(C2c3c(nc4sc(C)nn34)CCN2C(=O)COc2ccc(C(F)(F)F)cc2Cl)s1` (stereo not shown) [Example 1.28.2, Methyl 2-(6-(2-(2-chloro-4-(trifluoromethyl)phenoxy)acetyl)-2-methyl-5,6,7,8-tetrahydro-[1,3,4]thiadiazolo [2′,3′:2,3]imidazo[4,5-c]pyridin-5-yl)thiazole-5-carboxylate]: the IC50 under setting [1] was determined as 0.04 µM.

For `Cc1nn2c3c(nc2s1)CCN(C(=O)COc1ccc(N2CCCS2(=O)=O)nc1Cl)C3c1ccc(Cl)cc1F` (stereo not shown) [Example 1.4.49, 1-(5-(4-chloro-2-fluorophenyl)-2-methyl-7,8-dihydro-[1,3,4]thiadiazolo[2′,3′:2,3]imidazo[4,5-c]pyridin-6(5H)-yl)-2-((2-chloro-6-(1,1-dioxidoisothiazolidin-2-yl)pyridin-3-yl)oxy)ethanone], under setting [1], 0.009 µM corresponded to half-maximal inhibition (IC50).

Consider `Cc1nn2c3c(nc2s1)CCN(C(=O)COc1ccc(N2CCCC2)nc1C)C3c1ccc(C2CC2)cc1F` (stereo not shown) [Example 1.6.16, 1-(5-(4-cyclopropyl-2-fluorophenyl)-2-methyl-7,8-dihydro-[1,3,4]thiadiazolo[2′,3′:2,3]imidazo[4,5-c]pyridin-6(5H)-yl)-2-((2-methyl-6-(pyrrolidin-1-yl)pyridin-3-yl)oxy)ethanone], for which, under setting [1], half-maximal inhibition (IC50) was put at 0.013 µM.

Take `Cc1nn2c3c(nc2s1)CCN(C(=O)COc1ccc(C2(N(C)C)CC2)nc1Cl)C3c1ccc(Cl)cc1F` (stereo not shown) [Example 1.4.44, 1-(5-(4-chloro-2-fluorophenyl)-2-methyl-7,8-dihydro-[1,3,4]thiadiazolo[2′,3′:2,3]imidazo[4,5-c]pyridin-6(5H)-yl)-2-((2-chloro-6-(1-(dimethylamino)cyclopropyl)pyridin-3-yl)oxy)ethanone]: the IC50 under setting [1] was 0.051 µM.

With `O=C(COc1ccc(CN2CCOCC2)nc1Cl)N1CCc2nc3sccn3c2C1c1nc2ccccc2s1` (stereo not shown) [Example 6.12.8, 1-(5-(benzo[d]thiazol-2-yl)-7,8-dihydrothiazolo-[2′,3′:2,3]imidazo[4,5-c]pyridin-6(5H)-yl)-2-((2-chloro-6-(morpholinomethyl)pyridin-3-yl)oxy)ethanone], it took 0.043 µM to reach half-maximal inhibition under setting [1] (IC50).

The term IC50 denotes the point on the concentration scale where inhibition reaches its midpoint.
